Results on three molecules are retold here after US10993988B2, “Anthelmintic combinations and methods of use thereof” (BOEHRINGER INGELHEIM ANIMAL HEALTH USA INC., priority 2015, dated 2021).

Assay [1] relates to MP3 strain of D. immitis. As to conditions: cited from earlier work.
In assay [2] the test system is JYD-34 isolate of Dirofilaria immitis. Kind of assay: Efficacy of ivermectin and emodepside, separately and in combination, against induced Dirofilaria immitis infection in dogs (live worm counts at necropsy). Particulars: in vivo, po.
Setting [3] is: normal prophylaxis regimens, recent reports.

Read-outs that look alike come from different tables or passages of the source.

Consider `CC[C@H](C)[C@H]1O[C@]2(CC[C@@H]1C)C[C@@H]1C[C@@H](C/C=C(\C)[C@@H](O[C@H]3C[C@H](OC)[C@@H](O[C@H]4C[C@H](OC)[C@@H](O)[C@H](C)O4)[C@H](C)O3)[C@@H](C)/C=C/C=C3\CO[C@@H]4[C@H](O)C(C)=C[C@@H](C(=O)O1)[C@]34O)O2` [ivermectin oral solution, ivermectin], for which, in assay [1] (in vivo), the “Efficacy against MP3 strain” value was “incomplete efficacy”. Also, the Efficacy result in assay [2] was “Less than 50%”.

As to `CO[C@H]1C[C@H](O[C@@H]2/C(C)=C/C[C@@H]3C[C@@H](C[C@]4(CC[C@H](C)[C@@H](C5CCCCC5)O4)O3)OC(=O)[C@@H]3C=C(C)/C(=N/O)[C@H]4OC/C(=C\C=C\[C@@H]2C)[C@]43O)O[C@@H](C)[C@@H]1O` [selamectin], in assay [1] (setting [3]), the “Efficacy against MP3 strain” value is “incomplete efficacy”. Regarding milbemycin oxime, the “Efficacy against MP3 strain” value in assay [1] (setting [3]) is listed as “incomplete efficacy”.
